# Results taken from patent US20090215796A1, “Compositions, Kits and Methods for a Titration Schedule for Pardoprunox Compounds” (Solvay Pharmaceuticals B.V., priority 2008, published 2009).
# Legend:
# [1] = test system: human subjects; test: Clinical investigations on pardoprunox hydrochloride (general tolerability); type: in vivo
# [2] = test system: animal models; conditions: cited from earlier work
# [3] = target: dopamine D2 receptor (Homo sapiens, UniProt P14416); conditions: cited from earlier work
# dopamine D2 receptor, sequence (P14416 whole entry): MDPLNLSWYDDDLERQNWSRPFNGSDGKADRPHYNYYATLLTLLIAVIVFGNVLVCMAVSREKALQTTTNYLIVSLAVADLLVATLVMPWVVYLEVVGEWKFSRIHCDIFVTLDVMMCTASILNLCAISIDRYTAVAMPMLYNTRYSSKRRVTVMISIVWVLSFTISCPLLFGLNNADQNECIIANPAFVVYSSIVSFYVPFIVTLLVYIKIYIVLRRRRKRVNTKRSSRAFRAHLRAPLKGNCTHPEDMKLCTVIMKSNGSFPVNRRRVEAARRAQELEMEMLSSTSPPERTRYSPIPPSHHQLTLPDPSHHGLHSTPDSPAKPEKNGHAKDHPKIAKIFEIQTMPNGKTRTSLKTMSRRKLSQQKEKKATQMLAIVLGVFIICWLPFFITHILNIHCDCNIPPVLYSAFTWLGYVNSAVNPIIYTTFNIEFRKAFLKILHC
# [4] = target: T1, 5-HT1A (Homo sapiens, UniProt P08908); conditions: cited from earlier work
# T1 sequence (P08908 1-422): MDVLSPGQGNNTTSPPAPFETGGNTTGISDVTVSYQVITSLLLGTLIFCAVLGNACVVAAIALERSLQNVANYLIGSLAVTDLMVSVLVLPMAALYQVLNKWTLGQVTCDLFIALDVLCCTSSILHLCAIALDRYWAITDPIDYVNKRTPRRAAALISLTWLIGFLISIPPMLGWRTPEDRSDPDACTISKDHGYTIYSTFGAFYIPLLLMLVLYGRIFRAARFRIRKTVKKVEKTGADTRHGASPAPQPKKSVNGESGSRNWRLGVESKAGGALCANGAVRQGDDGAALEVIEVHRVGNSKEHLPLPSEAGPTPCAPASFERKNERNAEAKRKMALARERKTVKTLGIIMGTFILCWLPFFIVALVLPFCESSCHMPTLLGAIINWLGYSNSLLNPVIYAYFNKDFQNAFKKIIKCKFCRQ
# [5] = test system: subjects with PD characterized by motor fluctuations; test: Safety study S308.3.005, two titration schedules of pardoprunox as adjunctive treatment to L-dopa; type: in vivo, human
# Description: In this study, primarily a safety study, 62 subjects with PD characterized by motor fluctuations were randomized to one of three different treatment arms, consisting of two pardoprunox treatment arms (total daily dose 0.3-42 mg three times daily [tid]; groups 1 [25 subjects] and 2 [26 subjects]) and one placebo arm [11 subjects]). The study included a seven-week ascending dose period of pardoprunox as adjunctive treatment to L-dopa. The effect of two different titration schedules was investigated on the safety and tolerability profile, as well as the need and time required for L-dopa dose and/or regimen adjustments (see Table 4). The difference between the two pardoprunox groups was in titration steps taken to achieve at the same time the main study dose levels, namely Group 1—weekly, larger dose increments versus Group 2—with every 3 and 4-days smaller dose steps to the same ‘end of week’ pardoprunox main doses. In the group with the more gradual titration more than 92% of the subjects (24 out of 26) reached doses of 18 mg/day or higher, and 65% (17 out of 26 subjects) reached the highest dose level of 42 mg/day.
# [6] = target: dopamine D3 receptor (Homo sapiens, UniProt P35462); conditions: cited from earlier work
# dopamine D3 receptor, sequence (P35462 whole entry): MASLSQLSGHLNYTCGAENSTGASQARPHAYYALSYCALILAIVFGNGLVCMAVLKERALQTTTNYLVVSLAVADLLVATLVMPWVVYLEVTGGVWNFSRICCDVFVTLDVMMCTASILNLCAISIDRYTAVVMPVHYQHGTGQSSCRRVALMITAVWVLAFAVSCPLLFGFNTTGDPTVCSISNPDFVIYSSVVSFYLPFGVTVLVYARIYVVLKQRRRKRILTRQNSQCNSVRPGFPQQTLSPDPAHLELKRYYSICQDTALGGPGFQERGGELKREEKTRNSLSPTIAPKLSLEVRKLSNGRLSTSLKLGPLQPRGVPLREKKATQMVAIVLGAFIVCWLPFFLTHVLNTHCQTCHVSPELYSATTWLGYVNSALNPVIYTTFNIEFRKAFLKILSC
# [7] = test system: subjects with early PD; test: Double-blind, placebo-controlled proof of principle study S308.2.004, pardoprunox monotherapy; type: in vivo, human
# Description: In a double-blind, placebo-controlled proof of principle (PoP) study (S308.2.004), the effects of pardoprunox on efficacy, safety and tolerability as monotherapy in early PD were investigated including 138 randomized and treated subjects. Following a fixed-flexible titration period (average length of 24 days), subjects were kept on maintenance dose levels for three weeks (9, 12, 15, 18, 24, 30, 36 or 45 mg/day). Study medication was taken orally three times daily (tid), in the morning, at noon and in the evening, with any missed doses not taken subsequently.
# The dose of pardoprunox was progressively titrated from 0.3 mg/day to 9 mg/day according to a predefined schedule within 10 days, and to 30 mg/day within 20 days, by giving single dose unit or a combination of single dose unit. Daily doses were given over the day in the form of three dosage units. Up to the dose of 30 mg/day the titration was based on tolerability only, meaning that every next day (until step 10) or every other day (step 10-14) the dose was to be increased with one step if well-tolerated by the patient (see Table 3). […] From that moment, the patient had to stay on that lower dose level for 2 full days (at least 6 administrations) before trying the higher level again. The first administration of the higher dose had to be done in the morning. For a given titration step only one subsequent second attempt was allowed to reach the higher dose level. In total, three dose adjustments (on different titration steps) were allowed. If patients still could not reach a certain dose level after two sequential attempts and that dose level was below the minimum required dose level of 9 mg/day, they were not allowed to enter the maintenance phase. If a dose level of at least 9 mg/day has already been reached, they were allowed to maintain that dose level for the entire maintenance phase. Patients who reached the 30 mg/day dose could continue to escalate to 45 mg if tolerability allowed, and if further efficacy was expected. […]
# [8] = test system: early PD patients; test: First pivotal study S308.3.001, fixed and flexible dose arms versus placebo; type: in vivo, human
# Description: In the first pivotal study in early PD patients (study S308.3.001), the efficacy and safety of two fixed dose arms of pardoprunox (6 mg/day [n=115; Group 1] and 12 mg/day [n=118; Group 2]), and a flexible dose arm (12-42 mg/day [n=116; Group 3]) was compared to placebo (n=119) (see Table 6 for titration schedules used).
Structure (SMILES),tolerability ([1]; clinical investigations),anti-PD effect [2],antidepressant and anxiolytic efficacy [2],agonist activity at dopamine D2 receptor [3],agonist activity at 5-HT1A [4],doses or titration steps not tolerated (defined as causing more than 20% drop outs) ([5]; 0.3-42 mg/day tid),"subjects who terminated the study due to treatment related Adverse Effects ([5]; between 18 and 30 mg/day, group with smaller dose increments (four subjects)) [%]","drop-out rate ([5]; group with the larger, weekly dose increments (Group 1) compared with Group 2 and placebo, FIG. 1)","subjects who reached the highest dose level of 42 mg/day ([5]; group with the more gradual titration (Group 2), 17 out of 26 subjects) [%]","drop out rate due to treatment related Adverse Effects ([5]; up to the 18 mg/day dose, group with smaller dose increments) [%]",agonist activity at dopamine D3 receptor [6],tolerability ([1]; healthy human subjects),"efficacy between subgroups treated with 9-15 mg/day, 18-30 mg/day and >30-45 mg/day ([7]; explorative evaluation, dose/effect plot)","subjects who reached the highest dose level of 45 mg/day ([7]; flexible titration based on tolerability, tid oral)","subjects treated with pardoprunox doses of ≧30 mg/day ([7]; flexible titration based on tolerability, tid oral, maintenance 9-45 mg/day)",tolerability ([8]; 6 mg/day fixed dose group versus higher dose groups),"primary outcome measure UPDRS motor score versus placebo ([8]; all active treatment arms: 6 mg/day, 12 mg/day, 12-42 mg/day)","minimum effective dose ([8]; early PD patient population, conclusion from study) [mg/day]"
"CN1CCN(c2cccc3[nH]c(=O)oc23)CC1.Cl [pardoprunox hydrochloride, 7-(4-methyl)-1-piperazinyl-2(3H)-benzoxazolone hydrochloride]",well tolerated,–,–,–,–,–,–,–,–,–,–,–,–,–,–,–,–,–
"CN1CCN(c2cccc3[nH]c(=O)oc23)CC1 [pardoprunox, 7-(4-methyl)-1-piperazinyl-2(3H)-benzoxazolone]",–,marked and long-lasting anti-PD effect,evidence of antidepressant and anxiolytic efficacy,partial dopamine D2 and D3 receptor agonist,full 5-HT1A agonist activity,no particular doses or titration steps that could not be tolerated,15,much higher drop-out rate,65,4,partial dopamine D2 and D3 receptor agonist,relatively well tolerated,did not provide any clear differences in efficacy,approximately 16%,Approximately 40%,better than that of the higher dose groups,statistically superior to placebo,< 12
